Test results reported in the METLIN SMRT retention time set (Domingo-Almenara et al. 2019).

Assay: gradient 5% acetonitrile 3 min, to 50% in 2 min, to 85% in 15 min, held 3 min, 100 µL/min
Settings: column: Zorbax Extend-C18 2.1 x 50 mm; eluents: water / acetonitrile, 0.1% formic acid
Summary of the method: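 In both positive and negative ionization mode, a quadrupole time-of-flight mass spectrometer coupled to HPLC analyzed pure standards run in mixtures of ~100 molecules. The Zorbax Extend-C18 column (2.1 × 50 mm, 1.8 μm) was operated at 100 μL/min with water and acetonitrile, each containing 0.1% formic acid. The dead volume was 40 μL and the dwell volume 900 μL. Retention time came from adduct peaks that were computationally picked and individually inspected by hand.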

| RP-LC retention time [s] | Compound |
| --- | --- |
| 882 | Cc1ccc(NC2CC(=O)N(c3cccc([N+](=O)[O-])c3)C2=O)cc1 (centres undefined) |
| 717 | CC1(C)[C@@H]2CC[C@@]1(C(=O)O)C(=O)C2 |
| 728 | O=C(Nc1cn(-c2ccc(C(=O)N3CCN(c4ccccc4)CC3)cc2)cn1)C1CC1 |
| 797 | O=C1CC(c2nc3ccccc3n2CC(O)COc2ccccc2Cl)CN1Cc1ccccc1 (centres undefined) |
| 702 | O=C(CCc1ccccc1)Nc1cnn(-c2ncncc2N2CCCC2)c1 |
| 700 | CCOC(=O)c1ccc(NC(=O)CCc2c(-c3ccc(F)cc3)nc3ccccn23)cc1 |
| 745 | NC(=O)c1ccc(I)c([N+](=O)[O-])c1 |
| 889 | Cc1cc(N(C)C)n2ncc(-c3ccc(Cl)cc3)c2n1 |
| 1140 | O=c1c2cc(-c3cccs3)nn2cnn1Cc1nc(-c2cccc(C(F)(F)F)c2)no1 |
| 798 | O=C(Nc1nnc(Cc2ccccc2)s1)C1CCN(C(=O)c2cccc(F)c2)CC1 |
| 691 | O=C(CSc1ccc(N2CCCC(C(=O)NC3CC3)C2)nn1)Nc1ccc(Br)cc1 (centres undefined) |
| 767 | COc1cc(C(=O)NC(C)C(=O)Nc2nc3ccccc3[nH]2)cc(OC)c1OC (centres undefined) |
| 871 | CCOc1ccccc1C(=O)Nc1ccc2c(c1)Sc1ncccc1C(=O)N2C(C)C |
| 739 | O=C(c1nnc(-c2ccc(S(=O)(=O)N3CCCC3)cc2)o1)N1CCOCC1 |
| 816 | COc1cccc(C(=O)Nc2ccc3c(c2)Sc2ncccc2C(=O)N3C)c1OC |
| 1080 | Cn1ccc2cc(S(=O)(=O)N3CCCC(C(=O)NC4CCCCCCC4)C3)ccc21 (centres undefined) |
| 941 | CCOc1ccc(S(=O)(=O)N2CCC(c3nc(C(=O)N4CCCC4)c(C)o3)CC2)cc1 |
| 968 | O=C(Nc1ccc(SCc2nnc(-c3ccccc3)o2)cc1)c1cccs1 |
| 716 | Cc1cnn(CC(=O)N2CCCCCCNC(=O)[C@@H]3CCCC[C@@H]32)c1 |
| 617 | CCN(CC)CCNC(=O)c1cc(S(C)(=O)=O)ccc1OC |
| 695 | CC1CCN(Cc2nc(-c3ccc(N4CCCC(C)C4)nc3)no2)CC1 (centres undefined) |
| 831 | CO[C@H]1C(=O)N(C(C)C)[C@H]1C1CCN(S(=O)(=O)Cc2ccccc2F)CC1 |
| 587 | c1cc2c(cc1OCc1cn(CC3CCCNC3)nn1)CCC2 (centres undefined) |
| 879 | NS(=O)(=O)c1cccnc1Nc1ccc(F)c(Cl)c1 |
| 706 | CN(c1ccc(F)cc1)S(=O)(=O)N1CCCC(C(=O)NCCCN2CCc3ccccc3C2)C1 (centres undefined) |

| RP-LC retention time [s] | Compound |
| --- | --- |
| 964 | CC1CCN(S(=O)(=O)c2ccc(-c3nnc(C(C)C)o3)o2)CC1 |
| 706 | COc1ccc2c(CCNC(=O)C(C)C)c[nH]c2c1 |
| 927 | CCN1C(=O)c2cccnc2Sc2cc(NC(=O)COc3ccc(Cl)cc3)ccc21 |
| 814 | Clc1ccc(-c2csc(N3CCC(c4ccccc4)C3)n2)cc1 (centres undefined) |
| 927 | O=C(Nc1cc(-c2ccsc2)no1)c1ccc(Br)o1 |
| 887 | CCc1nnc(-c2cc(C)n(CC(=O)Nc3cc(C)cc(C)c3)c2C)o1 |
| 678 | Cc1ccc(NC(=O)Cn2c(C)nc3cc4c(cc32)OCCO4)cc1C |
| 1160 | O=S(=O)(c1ccccc1Br)N1CCC(c2noc(-c3ccccc3)n2)CC1 |
| 574 | COc1cc(NC(=O)Nc2ccc3nc(N4CCN(C)CC4)cc(C)c3c2)cc(OC)c1OC |
| 1030 | Cc1cc(NC(=O)CCS(=O)(=O)c2ccc(F)cc2)n(-c2nc3ccccc3s2)n1 |
| 607 | COc1ccccc1CCC(=O)N1CCn2c(C)nnc2C1 |
| 1390 | CCc1nc(-c2cccc(-c3noc(COc4cccc(C)c4)n3)c2)cs1 |
| 648 | CCC1CCCCN1C(=O)c1cnc2nc(C)ccc2c1Nc1ccc(OC)c(OC)c1 (centres undefined) |
| 1200 | CC(C)n1c(=O)oc2cc(-c3noc(/C=C/c4ccccc4)n3)ccc21 |
| 983 | Cc1ccn(S(=O)(=O)c2ccc(C(C)(C)C)cc2)n1 |
| 565 | O=c1cccnn1CCNS(=O)(=O)c1cccnc1 |
| 944 | CCc1ccc(S(=O)(=O)c2cnc(N3CCC4(CC3)OCCO4)nc2N)cc1 |
| 762 | COc1ccc(NC(=O)NCC(=O)N2CCc3ccccc32)c(OC)c1 |
| 776 | O=C(NCCCn1c(C(F)(F)F)nc2cccnc21)Nc1ccccc1 |
| 823 | Cc1nc(-c2csc(S(=O)(=O)N3CCC(C(=O)NCc4cccs4)CC3)c2)no1 |
| 847 | O=C(C1=CN(c2ccc3c(c2)OCO3)c2cc(Cl)ccc2S1(=O)=O)N1CCCC1 |
| 833 | Cc1ccccc1Cn1c(CN2CCC(C(=O)NC(C)Cc3ccco3)CC2)cc2ccccc21 (centres undefined) |
| 756 | O=C(Cc1c[nH]c2ccccc12)N1CCN(c2cc(-c3cccs3)[nH]n2)CC1 |
| 612 | Cc1ccc(NC(=O)CN2C(=O)COc3ccc(C(=O)N(C)C)cc32)nc1 |
| 670 | Cc1ccsc1C(=O)NC1CCN(c2cc(-c3ccc(F)cc3)[nH]n2)C1 (centres undefined) |

The next lines start with the compound.

| Compound | RP-LC retention time [s] |
| --- | --- |
| O=C(Nc1cccc(OC(F)(F)F)c1)C1CCCN(c2nnc3ccccn23)C1 (centres undefined) | 784 |
| Cc1nnc2ccc(-c3noc(Cc4cccc(F)c4)n3)cn12 | 787 |
| CCc1ccc(-c2cc(C(=O)N3CCN(c4ncccn4)CC3)c3ccccc3n2)s1 | 1090 |
| COc1ccc(S(=O)(=O)NCCc2ccc(N3CCCC3)cc2)cc1OC | 776 |
| COc1ccc(NC(=O)C2c3cc(OC)c(OC)cc3C(=O)N3CCc4ccccc4C23)cc1OC (centres undefined) | 744 |
| O=C(CCn1nnc2cc(-c3noc(-c4ccc(C(F)(F)F)cc4)n3)ccc21)N1CCOCC1 | 974 |
| CC(C)Cn1nc2n(c1=O)CCN(S(=O)(=O)c1cccc3cccnc13)CC2 | 754 |
| O=S(=O)(Nc1ccc2c(c1)OCCO2)c1ccc2nncn2c1 | 660 |
| CCc1cc(-c2csc(S(=O)(=O)NCCCN3CCC(C)CC3)c2)on1 | 677 |
| Cc1ccc2c(c1)N(S(C)(=O)=O)CCC(C(=O)Nc1cccc(Cl)c1C)O2 (centres undefined) | 1020 |
| O=C(c1ccc(-c2cccnc2)nc1)N1CCN(c2ccccc2)CC1 | 663 |
| Cc1ccc(-c2noc(Cn3cnc4c(oc5ccccc54)c3=O)n2)cc1 | 999 |
| O=C(CN1C(=O)CCCc2cc(S(=O)(=O)N3CCCC3)ccc21)N1CCc2ccccc2C1 | 838 |
| CN(C)CCCNc1oc(-c2ccccc2F)nc1S(=O)(=O)c1ccccc1 | 666 |
| CN(C)c1ccc(CNc2ccc(-c3nc(-c4cccc(F)c4)no3)cn2)cc1 | 912 |
| O=C(c1cccc(Cn2cncn2)c1)N1CCC2(CC1)OCCO2 | 607 |
| O=c1c2cnn(Cc3ccccc3F)c2ncn1Cc1cccc(C(F)(F)F)c1 | 928 |
| Cc1ccc(-n2c(N3CCCC(C(=O)NCc4ccc(Cl)cc4)C3)nc3ccsc3c2=O)cc1 (centres undefined) | 956 |
| CCN(CC)S(=O)(=O)c1cc(-c2nc(C(C)(C)C)cs2)cs1 | 1350 |
| Cc1cc2nn(CC(=O)NC3CCCCC3)c(=O)n2c(Nc2ccc(F)cc2)n1 | 909 |

| Compound | RP-LC retention time [s] |
| --- | --- |
| COc1ccccc1-c1noc(Cn2c(=O)n(CCc3ccccc3)c(=O)c3sccc32)n1 | 1030 |
| CCc1c(C2CCN(C(=O)c3cccc(C#N)c3)CC2)noc1N | 690 |
| O=C(CN(C(=O)c1ccc(F)c(F)c1)C1CCCCC1)N1CCNCC1 | 635 |
| COC(=O)c1c2c(nc3ccccc13)CCN(C(=O)Nc1cc(OC)ccc1OC)C2 | 839 |
| Cc1ccccc1Cn1cc(-c2ccncc2)cc1C(=O)NC1CC1 | 648 |
| CCOC(=O)c1ccc(NC(=O)N2CCN(CC)c3ncccc32)cc1 | 640 |
| O=C(CCCc1ccccc1)N1CCN(c2nc(CN3CCOCC3)cs2)CC1 | 639 |
| CCCNC(=O)Cn1c(=O)c2cccn2c2ccc(F)cc21 | 729 |
| Cc1nn(C)c2c(=O)n(CC(=O)N3CCN(c4ccccn4)CC3)ccc12 | 558 |
| Cc1cc2c(cc(C(=O)N3CCC(C(=O)NC4CCCC4)CC3)n2Cc2c(F)cccc2Cl)o1 | 998 |
| Cc1cccc(C)c1-n1ccn(Cc2nc(-c3ccccn3)no2)c(=O)c1=O | 695 |
| Cc1ccc(CNC(=O)c2ncn3c2C(=O)N(C2CC2)C(C)(C(=O)NCc2ccc(F)cc2)C3)cc1 (centres undefined) | 799 |
| Cc1ccc(Cl)cc1N1CCN(C(=O)c2[nH]c(C)c(S(=O)(=O)N3CCOCC3)c2C)CC1 | 984 |
| CCNS(=O)(=O)c1ccc(Cl)c(-c2nnc(-c3ccccc3)o2)c1 | 919 |
| O=C(c1ccoc1)N1CCC(F)(C(=O)NC2CC2)CC1 | 569 |
| Cc1cc(NC(=O)CSc2nnc(Cc3ccccc3)o2)no1 | 716 |
| CC(C)CC(=O)Nc1ccc(-n2cnc(C(=O)NC3CCCCCC3)c2)nc1 | 865 |
| NC(=O)[C@@H]1C[C@H](Oc2cccnc2)CN1C(=O)c1cccs1 | 532 |
| COc1ccccc1-c1cc(C(F)(F)F)n2ncc(C(=O)OCCN3CCOCC3)c2n1 | 710 |
